Measurements: paper PMC4696747 (PLoS ONE, 2015)

Legend:
[1] = target: T1, rat lactate dehydrogenase A (rLDHA) (Rattus norvegicus, UniProt P04642); experiment: SPR (BIAcore T200), steady-state affinity; kinetic fit gives Kd […]; type: binding
T1 construct: gene Ldha; amino acids 1–332 of full-length wild type, untagged, biotinylated

[2] = test system: CC(=O)C(=O)O; experiment: purified protein; settings: NADH

Row | Molecule | Kd [1] [µM] | Km [2] [µM]
1 | NC(=O)C1=CN([C@@H]2O[C@H](COP(=O)(O)OP(=O)(O)OC[C@H]3O[C@@H](n4cnc5c(N)ncnc54)[C@H](O)[C@@H]3O)[C@@H](O)[C@H]2O)C=CC1 [NADH] | 6.4 ± 0.3 | 
2 | rat lactate dehydrogenase A (rLDHA) (Rattus norvegicus) |  | 530 ± 80
